ChEMBL document CHEMBL5370659 (J Med Chem, 2023)
≈ marks a conversion by molar mass, not a printed value.

Assays:
[1] = target: T1, Tryptophan 5-hydroxylase 2 (Homo sapiens, UniProt Q8IWU9); assay: Inhibition of recombinant MBP-tagged full length human THP2 using L-Trp as substrate assessed as formation of 5-HTP by measuring fluorescent property
T1 sequence (Q8IWU9 whole entry): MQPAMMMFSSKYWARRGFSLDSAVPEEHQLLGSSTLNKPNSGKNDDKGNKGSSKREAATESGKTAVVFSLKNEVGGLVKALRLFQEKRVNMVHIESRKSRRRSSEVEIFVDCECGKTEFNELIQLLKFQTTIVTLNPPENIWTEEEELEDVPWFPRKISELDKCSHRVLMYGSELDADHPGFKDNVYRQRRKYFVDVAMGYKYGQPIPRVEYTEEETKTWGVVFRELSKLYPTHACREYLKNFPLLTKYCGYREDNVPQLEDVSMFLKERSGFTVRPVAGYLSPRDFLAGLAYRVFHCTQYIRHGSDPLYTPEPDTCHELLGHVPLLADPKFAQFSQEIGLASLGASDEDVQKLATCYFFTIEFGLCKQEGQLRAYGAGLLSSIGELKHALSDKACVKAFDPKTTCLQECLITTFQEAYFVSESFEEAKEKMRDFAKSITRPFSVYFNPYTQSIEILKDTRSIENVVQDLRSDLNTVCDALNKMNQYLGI

[2] = target: T2, Tryptophan 5-hydroxylase 1 (Homo sapiens, UniProt P17752); assay: Inhibition of recombinant MBP-tagged full length human THP1 using L-Trp as substrate assessed as formation of 5-HTP by measuring fluorescent property
T2 sequence (P17752 whole entry): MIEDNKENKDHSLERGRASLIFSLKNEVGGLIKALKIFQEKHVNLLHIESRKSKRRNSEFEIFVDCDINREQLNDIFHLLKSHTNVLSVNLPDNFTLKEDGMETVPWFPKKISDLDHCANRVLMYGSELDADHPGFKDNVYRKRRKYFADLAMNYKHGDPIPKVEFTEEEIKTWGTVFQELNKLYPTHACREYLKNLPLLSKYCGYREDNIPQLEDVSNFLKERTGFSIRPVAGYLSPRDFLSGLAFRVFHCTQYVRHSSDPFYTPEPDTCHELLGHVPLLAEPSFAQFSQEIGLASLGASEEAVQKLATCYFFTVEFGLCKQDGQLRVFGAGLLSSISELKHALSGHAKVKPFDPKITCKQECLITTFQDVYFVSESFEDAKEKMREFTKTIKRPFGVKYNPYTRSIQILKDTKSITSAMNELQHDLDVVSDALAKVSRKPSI

[3] = Plasma protein binding in human; format: ADME, cell-free; conditions: read-out: PPB (converted)
[4] = Plasma protein binding in rat; format: ADME, cell-free; conditions: read-out: PPB (converted)
[5] = Aqueous solubility of the compound in pH 7.4 PBS buffer by HPLC-UV analysis; format: physicochemical
[6] = Apparent permeability across basal to apical side in human Caco-2 cells at pH 6.5/7.4 measured at 5 uM by LC-MS/MS analysis; format: ADME, cell-based; conditions: Caco-2, pH 6.5
[7] = Metabolic stability in rat hepatocytes assessed as intrinsic clearance; format: ADME, cell-based, Hepatocyte; conditions: read-out: CLH
[8] = Apparent permeability across apical to basal side in human Caco-2 cells at pH 6.5/7.4 measured at 5 uM by LC-MS/MS analysis; format: ADME, cell-based; conditions: Caco-2, pH 6.5
[9] = Solubility in simulated gastric fluid by HPLC-UV analysis; format: physicochemical
[10] = Metabolic stability in rat hepatocytes assessed as half life; format: ADME, cell-based, Hepatocyte
[11] = Metabolic stability in human hepatocytes assessed as half life; format: ADME, cell-based, Hepatocyte
[12] = Metabolic stability in human hepatocytes assessed as intrinsic clearance; format: ADME, cell-based, Hepatocyte; conditions: read-out: CLH
[13] = Solubility in simulated intestinal fluid by HPLC-UV analysis; format: physicochemical

Compound | IC50 [1] [nM] | IC50 [2] [nM] | also measured
CCn1c(=O)[nH]c(=O)c2c1nc(Cc1cn3cc(C)sc3n1)n2CC1CCNCC1 | > 10000 | > 10000 | –
CCn1c(=O)[nH]c(=O)c2c1nc(Cc1cn3cc(C)sc3n1)n2CCCOC | 38 | 343 | –
CCn1c(=O)[nH]c(=O)c2c1nc(Cc1cn3cc(C)sc3n1)n2CC(=O)O | > 10000 | > 10000 | –
CCn1c(=O)[nH]c(=O)c2c1nc(Cc1cn3cc(C)sc3n1)n2Cc1ccccn1 | 18 | 84 | –
CCn1c(=O)[nH]c(=O)c2c1nc(Cc1cn3ccccc3n1)n2Cc1ccc(-c2ccn(C)n2)cc1 | – | – | fraction unbound [3]: 0.39; fraction unbound [4]: 0.29; solubility [5]: > 200 µM; Papp B→A at 5 µM [6]: 46.3 ×10⁻⁶ cm/s; CLint scaled [7]: 367 mL/min/kg; Papp A→B at 5 µM [8]: 2.3 ×10⁻⁶ cm/s; solubility [9]: > 200 µM; half-life [10]: 19 min; half-life [11]: > 60 min; CLint scaled [12]: < 115 mL/min/kg; solubility [13]: > 200 µM
CCn1c(=O)[nH]c(=O)c2c1nc(Cc1cn3cc(C)sc3n1)n2CC1CCC1 | 31 | 47 | –
CCn1c(=O)[nH]c(=O)c2c1nc(Cc1cn3cc(C)sc3n1)n2CC1CCCCC1 | 152 | 394 | –
CCn1c(=O)[nH]c(=O)c2c1nc(Cc1cn3cc(C)sc3n1)n2Cc1ccccc1 | – | – | fraction unbound [3]: 0.24; fraction unbound [4]: 0.21; solubility [5]: 35.1 µM (≈ 14.8 µg/mL); Papp B→A at 5 µM [6]: 53.9 ×10⁻⁶ cm/s; CLint scaled [7]: 514 mL/min/kg; Papp A→B at 5 µM [8]: 24.7 ×10⁻⁶ cm/s; solubility [9]: 177 µM (≈ 74.4 µg/mL); half-life [10]: 13 min; half-life [11]: 22 min; CLint scaled [12]: 315 mL/min/kg; solubility [13]: 48.5 µM (≈ 20.4 µg/mL)
CCn1c(=O)[nH]c(=O)c2c1nc(Cc1cn3cc(C)sc3n1)n2CC1CCN(C(C)C)CC1 | > 10000 | > 10000 | –
CCn1c(=O)[nH]c(=O)c2c1nc(Cc1cn3cc(C)sc3n1)n2Cc1cccc(C)n1 | 24 | 196 | –
CCn1c(=O)[nH]c(=O)c2c1nc(Cc1cn3cc(C)sc3n1)n2C(C)C | 24 | 228 | –
CCn1c(=O)[nH]c(=O)c2c1nc(Cc1cn3cc(C)sc3n1)n2CC=C(C)C | 32 | 81 | –
CCn1c(=O)[nH]c(=O)c2c1nc(Cc1cn3cc(Cl)sc3n1)n2Cc1ccc(-c2ccn(C)n2)cc1 | – | – | fraction unbound [3]: 0.11; fraction unbound [4]: 0.11; solubility [5]: < 10 µM; Papp B→A at 5 µM [6]: 59.9 ×10⁻⁶ cm/s; CLint scaled [7]: 854 mL/min/kg; Papp A→B at 5 µM [8]: 4.9 ×10⁻⁶ cm/s; solubility [9]: < 10 µM; half-life [10]: 8 min; half-life [11]: 40 min; CLint scaled [12]: 174 mL/min/kg; solubility [13]: < 10 µM
CCn1c(=O)[nH]c(=O)c2c1nc(Cc1cn3c(n1)CCCC3)n2Cc1ccccc1 | – | – | fraction unbound [3]: 0.85; fraction unbound [4]: 0.82; solubility [5]: > 200 µM; Papp B→A at 5 µM [6]: 5.7 ×10⁻⁶ cm/s; CLint scaled [7]: < 115 mL/min/kg; Papp A→B at 5 µM [8]: 9.3 ×10⁻⁶ cm/s; solubility [9]: 188 µM (≈ 75.8 µg/mL); half-life [10]: > 60 min; half-life [11]: > 60 min; CLint scaled [12]: < 115 mL/min/kg; solubility [13]: > 200 µM
CCn1c(=O)[nH]c(=O)c2c1nc(Cc1cn3cc(C)sc3n1)n2Cc1cc(C)cc(C)c1 | 34 | 113 | –
CCn1c(=O)[nH]c(=O)c2c1nc(Cc1cn3cc(C)sc3n1)n2CCCC(=O)O | 69 | 690 | –
CCn1c(=O)[nH]c(=O)c2c1nc(Cc1cn3cc(C)sc3n1)n2CCC(=O)OC | 57 | 533 | –
CCOC(=O)CCCn1c(Cc2cn3cc(C)sc3n2)nc2c1c(=O)[nH]c(=O)n2CC | 26 | 107 | –
CCn1c(=O)[nH]c(=O)c2c1nc(Cc1cn3cc(Cl)sc3n1)n2Cc1ccccc1 | – | – | fraction unbound [3]: 0.23; fraction unbound [4]: 0.25; solubility [5]: 3.7 µM (≈ 1.63 µg/mL); Papp B→A at 5 µM [6]: 47.7 ×10⁻⁶ cm/s; CLint scaled [7]: < 115 mL/min/kg; Papp A→B at 5 µM [8]: 29.4 ×10⁻⁶ cm/s; solubility [9]: 198 µM (≈ 87.1 µg/mL); half-life [10]: > 60 min; half-life [11]: > 60 min; CLint scaled [12]: < 115 mL/min/kg; solubility [13]: 12.7 µM (≈ 5.6 µg/mL)
CCn1c(=O)[nH]c(=O)c2c1nc(Cc1cn3cc(C)sc3n1)n2CCC=C(C)C | 116 | 676 | –
CCn1c(=O)[nH]c(=O)c2c1nc(Cc1cn3cc(C)sc3n1)n2CC1CCN(C)CC1 | > 10000 | > 10000 | –
CCOC(=O)Cn1c(Cc2cn3cc(C)sc3n2)nc2c1c(=O)[nH]c(=O)n2CC | 37 | 300 | –

Continued, in another order:

IC50 [1] [nM] | IC50 [2] [nM] | Compound | also measured
25 | 243 | CCn1c(=O)[nH]c(=O)c2c1nc(Cc1cn3c(n1)CCCC3)n2Cc1cccc(C(=O)OC)c1 | –
307 | 3270 | CCn1c(=O)[nH]c(=O)c2c1nc(Cc1cn3c(n1)CCCC3)n2Cc1cccc(C(=O)O)c1 | –
22 | 66 | CCn1c(=O)[nH]c(=O)c2c1nc(Cc1cn3cc(C)sc3n1)n2Cc1cccc(C(=O)OC)c1 | –
57 | 772 | CCn1c(=O)[nH]c(=O)c2c1nc(Cc1cn3c(n1)CCCC3)n2CC1COC1 | –
63 | 380 | CCn1c(=O)[nH]c(=O)c2c1nc(Cc1cn3c(n1)CCCC3)n2Cc1cccc(C(=O)NC[C@H](NC(=O)OCc2ccccc2)C(=O)OC)c1 | –
176 | 1670 | CCn1c(=O)[nH]c(=O)c2c1nc(Cc1cn3c(n1)CCCC3)n2Cc1cccc(C(=O)NC[C@H](N)C(=O)O)c1 | –
51 | 151 | CCc1nc(C)ccc1OCC(=O)N1CCc2nc3n(c2C1c1ccc(Cl)cc1F)CCCC3 (racemic) | –
52 | 271 | CCn1c(=O)[nH]c(=O)c2c1nc(Cc1cn3cc(C)sc3n1)n2Cc1ccc(C(F)(F)F)cc1 | –
58 | 880 | CCn1c(=O)[nH]c(=O)c2c1nc(Cc1cn3c(n1)CCCC3)n2Cc1cccc(C(=O)NC[C@H](N)C(=O)OC)c1 | –
58 | 357 | CCn1c(=O)[nH]c(=O)c2c1nc(Cc1cn3cc(C)sc3n1)n2Cc1cccc(C(=O)O)c1 | –
32 | 394 | CCn1c(=O)[nH]c(=O)c2c1nc(Cc1cn3c(n1)CCCC3)n2CC1CCC1 | –
41 | 157 | CCn1c(=O)[nH]c(=O)c2c1nc(Cc1cn3cc(C)sc3n1)n2Cc1cccc(C(F)(F)F)c1 | –
